Our source for the IC50 values is BindingDB's records for doi:10.1021/acs.jmedchem.9b01169 (Boehringer Ingelheim Rcv, 2019).

pIC50: −log10 of the molar value. Bounds are passed on as bounds.

The test can be described thus: Inhibition of wild type EGFR in mouse BAF3 cells assessed as reduction in cell proliferation incubated for 72 hrs by Celltiter-Glo luminescent cell viability assay. A general note: In ATP-based viability assays light output follows the ATP content of the culture.

With `Cc1cc2cc(n1)-c1cnn(C)c1OCCC[C@@H](C)CN1/C(=N/C2=O)Nc2ccccc21`, the pIC50 (in general, −log10 of the IC50, conventionally taken in molar units) is 5.96.
Turning to `Cn1ncc2c1OCCCCCN1/C(=N/C(=O)c3cc(F)nc-2c3)Nc2ccccc21`, the pIC50 was 6.57.
As for `CC(C)(O)Cn1/c(=N/C(=O)c2ccnc(-c3ccccc3)c2)[nH]c2ccccc21`, the figure is less than 5.00.
For `O=C1/N=C2\Nc3ccccc3N2CCCCCOc2ccccc2-c2cc1ccn2`, the pIC50 was 5.89.
Regarding `Cn1cc(-c2cc(C(=O)/N=c3\[nH]c4ccccc4n3CC(C)(C)O)ccn2)cn1`, the pIC50 was 5.29.
Next, `Cc1cc2cc(n1)-c1cnn(C)c1OCCCCCN1/C(=N/C2=O)Nc2ccccc21`: 5.64; `COc1ccncc1-c1cc(C(=O)/N=c2\[nH]c3ccccc3n2CC(C)(C)O)ccn1`: 6.15.
